Data published in ChEMBL document CHEMBL1201862, “PubChem BioAssay data set” (2004).
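1) Cells in 96-well plates. 2) Compound, 48 h, 5 concentrations. 3) Linear interpolation between surrounding doses. 4) Unreached endpoint = highest concentration. Here, GI50 denotes the concentration required for 50% inhibition of growth.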 The source made the active and inactive calls. No stated cut-off is given here; in the data, active = GI50 up to about 1.1 µM and inactive = higher.

How the values were obtained:
Assay in all cases: NCI tumour cell line growth inhibition, 48 h
[1] = tested on: SR
[2] = tested on: A498
[3] = tested on: EKVX
[4] = tested on: MDA-N
[5] = tested on: NCI-H226
[6] = tested on: MDA-MB-435
[7] = tested on: UO-31
[8] = tested on: BT-549
[9] = tested on: MOLT-4
[10] = tested on: DU-145
[11] = tested on: MDA-MB-231
[12] = tested on: NCI/ADR-RES
[13] = tested on: LOX IMVI
[14] = tested on: MCF7
[15] = tested on: PC-3
[16] = tested on: T47D
[17] = tested on: Hs-578T
[18] = tested on: HCC 2998
[19] = tested on: DMS-273
[20] = tested on: DLD-1

Row | SMILES | GI50 [1] | GI50 [2] | GI50 [3] | GI50 [4] | GI50 [5] | GI50 [6] | GI50 [7] | GI50 [8] | GI50 [9] | GI50 [10] | GI50 [11] | GI50 [12] | GI50 [13] | GI50 [14] | GI50 [15] | GI50 [16] | GI50 [17] | GI50 [18] | GI50 [19] | GI50 [20]
1 | c1ccc(NN/N=N/c2ccc(-c3nc4ccccc4[nH]3)cc2)cc1 | 31.8 µM (inactive) | 43.7 µM (inactive) | 39.4 µM (inactive) | 29.9 µM (inactive) | 36.9 µM (inactive) | 19.4 µM (inactive) | 34.5 µM (inactive) | 29.4 µM (inactive) | 14.5 µM (inactive) | 42.7 µM (inactive) | 72.8 µM (inactive) | 22.1 µM (inactive) | 15.2 µM (inactive) | 15.3 µM (inactive) | 26.8 µM (inactive) | 8.17 µM (inactive) | 29.1 µM (inactive) | – | – | –
2 | C[C@]12CC[C@H]3[C@@H](CCC4=CC(=O)CC[C@@]43C)[C@@H]1CC[C@@H]2C(=O)COS(=O)(=O)c1ccc(Br)cc1 | 1.4 µM (inactive) | 20.2 µM (inactive) | 7.67 µM (inactive) | 0.379 µM (active) | 13.2 µM (inactive) | 9.55 µM (inactive) | 1.7 µM (inactive) | 10 µM (inactive) | 1.41 µM (inactive) | 16.8 µM (inactive) | 6.49 µM (inactive) | 10.6 µM (inactive) | 1.61 µM (inactive) | 8.15 µM (inactive) | 8.85 µM (inactive) | 9.35 µM (inactive) | 20.4 µM (inactive) | 2.09 µM (inactive) | – | –
3 | Nc1n[c-](N)[n+](=O)c(N)c1NCO | > 100 µM (inactive) | > 100 µM (inactive) | > 100 µM (inactive) | > 100 µM (inactive) | > 100 µM (inactive) | > 100 µM (inactive) | > 100 µM (inactive) | > 100 µM (inactive) | > 100 µM (inactive) | > 100 µM (inactive) | > 100 µM (inactive) | > 100 µM (inactive) | > 100 µM (inactive) | > 100 µM (inactive) | > 100 µM (inactive) | > 100 µM (inactive) | > 100 µM (inactive) | > 100 µM (inactive) | – | –
4 | COc1cc(C2C(C(=O)O)=C(CO)Oc3cc4c(cc32)OCO4)cc(OC)c1O (stereo unspecified) | – | – | > 100 µM (inactive) | – | – | – | > 100 µM (inactive) | – | > 100 µM (inactive) | – | – | – | > 100 µM (inactive) | – | – | – | – | – | > 100 µM (inactive) | > 100 µM (inactive)
5 | Cc1nc2ccccc2n1C(=O)c1c(F)c(F)c(F)c(F)c1F | 2.34 µM (inactive) | 20.3 µM (inactive) | 28.3 µM (inactive) | 8.69 µM (inactive) | 18.8 µM (inactive) | 4.99 µM (inactive) | 17 µM (inactive) | 21 µM (inactive) | 4.07 µM (inactive) | 26.5 µM (inactive) | 16.2 µM (inactive) | 17.5 µM (inactive) | 8.93 µM (inactive) | 5.12 µM (inactive) | 17.5 µM (inactive) | 59.8 µM (inactive) | 26.5 µM (inactive) | 17.6 µM (inactive) | – | –
6 | O=c1[nH]c(=O)n(C2CC(O)C(CO)O2)cc1C(OCC(F)(F)F)OCC(F)(F)F (stereo unspecified) | – | > 100 µM (inactive) | > 100 µM (inactive) | – | – | – | > 100 µM (inactive) | – | > 100 µM (inactive) | – | – | – | > 100 µM (inactive) | – | – | – | – | > 100 µM (inactive) | > 100 µM (inactive) | > 100 µM (inactive)
7 | O=C(O)C12CCCCC1CCCC2 (stereo unspecified) | – | > 100 µM (inactive) | > 100 µM (inactive) | – | > 100 µM (inactive) | – | – | – | > 100 µM (inactive) | – | – | – | > 100 µM (inactive) | – | – | – | – | > 100 µM (inactive) | > 100 µM (inactive) | > 100 µM (inactive)
8 | O=C(c1ccccc1Br)C(F)(F)F | > 100 µM (inactive) | > 100 µM (inactive) | > 100 µM (inactive) | > 100 µM (inactive) | > 100 µM (inactive) | > 100 µM (inactive) | > 100 µM (inactive) | > 100 µM (inactive) | > 100 µM (inactive) | > 100 µM (inactive) | > 100 µM (inactive) | > 100 µM (inactive) | > 100 µM (inactive) | > 100 µM (inactive) | > 100 µM (inactive) | 48.5 µM (inactive) | > 100 µM (inactive) | > 100 µM (inactive) | – | –
